Assay results reported in the NIST ThermoML archive (doi:10.1021/je400056z).
Numbers after ± are expanded uncertainties.

Test: xn = mol fraction of the nth substance listed
Settings: Liquid, Vibrating tube method

Compound: CCCCCCCCCCCCC [tridecane] + O=C=O
- mass density (353.12 K, 20000 kPa, x2 = 0.0955): 732.3 ± 0.4 kg/m3
- mass density (353.12 K, 20000 kPa, x2 = 0.2526): 735.2 ± 0.4 kg/m3
- mass density (353.12 K, 21000 kPa, x2 = 0.0955): 733.1 ± 0.4 kg/m3
- mass density (353.12 K, 21000 kPa, x2 = 0.2526): 736 ± 0.4 kg/m3
- mass density (353.12 K, 22000 kPa, x2 = 0.0955): 733.9 ± 0.4 kg/m3
- mass density (353.12 K, 22000 kPa, x2 = 0.2526): 736.8 ± 0.4 kg/m3
- mass density (353.12 K, 23000 kPa, x2 = 0.0955): 734.6 ± 0.4 kg/m3
- mass density (353.12 K, 23000 kPa, x2 = 0.2526): 737.6 ± 0.4 kg/m3
- mass density (353.12 K, 24000 kPa, x2 = 0.0955): 735.4 ± 0.5 kg/m3
- mass density (353.12 K, 24000 kPa, x2 = 0.2526): 738.5 ± 0.4 kg/m3
- mass density (353.12 K, 25000 kPa, x2 = 0.0955): 736.1 ± 0.5 kg/m3
- mass density (353.12 K, 25000 kPa, x2 = 0.2526): 739.2 ± 0.4 kg/m3
- mass density (353.13 K, 17000 kPa, x2 = 0.8978): 677.4 ± 0.6 kg/m3
- mass density (353.13 K, 18000 kPa, x2 = 0.8978): 689.5 ± 0.5 kg/m3
- mass density (353.13 K, 20000 kPa, x2 = 0.8978): 712.3 ± 0.5 kg/m3
- mass density (353.13 K, 21000 kPa, x2 = 0.8978): 721.9 ± 0.5 kg/m3
- mass density (353.13 K, 22000 kPa, x2 = 0.8978): 730.6 ± 0.5 kg/m3
- mass density (353.13 K, 23000 kPa, x2 = 0.8978): 738.3 ± 0.5 kg/m3
- mass density (353.13 K, 24000 kPa, x2 = 0.8978): 745.5 ± 0.4 kg/m3
- mass density (353.13 K, 25000 kPa, x2 = 0.8978): 752.2 ± 0.4 kg/m3
- mass density (353.15 K, 8000 kPa, x2 = 0.5259): 729.7 ± 0.3 kg/m3
- mass density (353.15 K, 9000 kPa, x2 = 0.5259): 731.2 ± 0.3 kg/m3
- mass density (353.15 K, 10000 kPa, x2 = 0.5259): 732.7 ± 0.3 kg/m3
- mass density (353.15 K, 11000 kPa, x2 = 0.5259): 734.2 ± 0.3 kg/m3
- mass density (353.15 K, 12000 kPa, x2 = 0.5259): 735.6 ± 0.3 kg/m3
- mass density (353.15 K, 13000 kPa, x2 = 0.5259): 737 ± 0.3 kg/m3
- mass density (353.15 K, 14000 kPa, x2 = 0.5259): 738.3 ± 0.3 kg/m3
- mass density (353.15 K, 15000 kPa, x2 = 0.5259): 739.7 ± 0.3 kg/m3
- mass density (353.15 K, 16000 kPa, x2 = 0.5259): 741 ± 0.4 kg/m3
- mass density (353.15 K, 17000 kPa, x2 = 0.5259): 742.3 ± 0.4 kg/m3
- mass density (353.15 K, 18000 kPa, x2 = 0.5259): 743.6 ± 0.4 kg/m3
- mass density (353.15 K, 19000 kPa, x2 = 0.5259): 744.9 ± 0.4 kg/m3
- mass density (353.15 K, 20000 kPa, x2 = 0.5259): 746 ± 0.4 kg/m3
- mass density (353.15 K, 21000 kPa, x2 = 0.5259): 747.3 ± 0.4 kg/m3
- mass density (353.15 K, 22000 kPa, x2 = 0.5259): 748.4 ± 0.4 kg/m3
- mass density (353.15 K, 23000 kPa, x2 = 0.5259): 749.6 ± 0.4 kg/m3
- mass density (353.15 K, 24000 kPa, x2 = 0.5259): 750.6 ± 0.4 kg/m3
- mass density (353.15 K, 25000 kPa, x2 = 0.5259): 751.8 ± 0.4 kg/m3
- mass density (353.35 K, 16000 kPa, x2 = 0.7549): 739.7 ± 0.5 kg/m3
- mass density (353.35 K, 17000 kPa, x2 = 0.7549): 742.7 ± 0.4 kg/m3
- mass density (353.35 K, 18000 kPa, x2 = 0.7549): 745.7 ± 0.4 kg/m3
- mass density (353.35 K, 19000 kPa, x2 = 0.7549): 748.7 ± 0.4 kg/m3
- mass density (353.35 K, 20000 kPa, x2 = 0.7549): 751.8 ± 0.4 kg/m3
- mass density (353.35 K, 21000 kPa, x2 = 0.7549): 754.9 ± 0.4 kg/m3
- mass density (353.35 K, 22000 kPa, x2 = 0.7549): 757.9 ± 0.4 kg/m3
- mass density (353.35 K, 23000 kPa, x2 = 0.7549): 760.8 ± 0.4 kg/m3
- mass density (353.35 K, 24000 kPa, x2 = 0.7549): 763.8 ± 0.4 kg/m3
- mass density (353.35 K, 25000 kPa, x2 = 0.7549): 766.7 ± 0.4 kg/m3
- mass density (363.07 K, 19000 kPa, x2 = 0.8978): 671.9 ± 0.5 kg/m3
- mass density (363.07 K, 20000 kPa, x2 = 0.8978): 681 ± 0.5 kg/m3
- mass density (363.07 K, 21000 kPa, x2 = 0.8978): 691.1 ± 0.5 kg/m3
- mass density (363.07 K, 22000 kPa, x2 = 0.8978): 700.8 ± 0.5 kg/m3
- mass density (363.07 K, 23000 kPa, x2 = 0.8978): 709.5 ± 0.5 kg/m3
- mass density (363.07 K, 24000 kPa, x2 = 0.8978): 717.3 ± 0.5 kg/m3
- mass density (363.07 K, 25000 kPa, x2 = 0.8978): 724.8 ± 0.5 kg/m3
- mass density (363.11 K, 9000 kPa, x2 = 0.0955): 715.7 ± 0.3 kg/m3
- mass density (363.11 K, 9000 kPa, x2 = 0.2526): 717.4 ± 0.3 kg/m3
- mass density (363.11 K, 10000 kPa, x2 = 0.0955): 716.7 ± 0.3 kg/m3
- mass density (363.11 K, 10000 kPa, x2 = 0.2526): 718.4 ± 0.3 kg/m3
- mass density (363.11 K, 10000 kPa, x2 = 0.5259): 723 ± 0.3 kg/m3
- mass density (363.11 K, 11000 kPa, x2 = 0.0955): 717.7 ± 0.4 kg/m3
- mass density (363.11 K, 11000 kPa, x2 = 0.2526): 719.5 ± 0.3 kg/m3
- mass density (363.11 K, 11000 kPa, x2 = 0.5259): 724.6 ± 0.3 kg/m3
- mass density (363.11 K, 12000 kPa, x2 = 0.0955): 718.7 ± 0.4 kg/m3
- mass density (363.11 K, 12000 kPa, x2 = 0.2526): 720.5 ± 0.4 kg/m3
- mass density (363.11 K, 12000 kPa, x2 = 0.5259): 726.2 ± 0.3 kg/m3
- mass density (363.11 K, 13000 kPa, x2 = 0.0955): 719.6 ± 0.4 kg/m3
- mass density (363.11 K, 13000 kPa, x2 = 0.2526): 721.5 ± 0.4 kg/m3
- mass density (363.11 K, 13000 kPa, x2 = 0.5259): 727.6 ± 0.3 kg/m3
- mass density (363.11 K, 14000 kPa, x2 = 0.0955): 720.5 ± 0.4 kg/m3
- mass density (363.11 K, 14000 kPa, x2 = 0.2526): 722.6 ± 0.4 kg/m3
- mass density (363.11 K, 14000 kPa, x2 = 0.5259): 729.2 ± 0.3 kg/m3
- mass density (363.11 K, 15000 kPa, x2 = 0.0955): 721.5 ± 0.4 kg/m3
- mass density (363.11 K, 15000 kPa, x2 = 0.2526): 723.6 ± 0.4 kg/m3
- mass density (363.11 K, 15000 kPa, x2 = 0.5259): 730.6 ± 0.4 kg/m3
- mass density (363.11 K, 16000 kPa, x2 = 0.0955): 722.4 ± 0.4 kg/m3
- mass density (363.11 K, 16000 kPa, x2 = 0.2526): 724.6 ± 0.4 kg/m3
- mass density (363.11 K, 16000 kPa, x2 = 0.5259): 732 ± 0.4 kg/m3
- mass density (363.11 K, 17000 kPa, x2 = 0.0955): 723.3 ± 0.4 kg/m3
- mass density (363.11 K, 17000 kPa, x2 = 0.2526): 725.5 ± 0.4 kg/m3
- mass density (363.11 K, 17000 kPa, x2 = 0.5259): 733.4 ± 0.4 kg/m3
- mass density (363.11 K, 18000 kPa, x2 = 0.0955): 724.1 ± 0.4 kg/m3
- mass density (363.11 K, 18000 kPa, x2 = 0.2526): 726.4 ± 0.4 kg/m3
- mass density (363.11 K, 18000 kPa, x2 = 0.5259): 734.7 ± 0.4 kg/m3
- mass density (363.11 K, 19000 kPa, x2 = 0.0955): 725 ± 0.4 kg/m3
- mass density (363.11 K, 19000 kPa, x2 = 0.2526): 727.4 ± 0.4 kg/m3
- mass density (363.11 K, 19000 kPa, x2 = 0.5259): 736 ± 0.4 kg/m3
- mass density (363.11 K, 20000 kPa, x2 = 0.0955): 725.8 ± 0.4 kg/m3
- mass density (363.11 K, 20000 kPa, x2 = 0.2526): 728.3 ± 0.4 kg/m3
- mass density (363.11 K, 20000 kPa, x2 = 0.5259): 737.3 ± 0.4 kg/m3
- mass density (363.11 K, 21000 kPa, x2 = 0.0955): 726.6 ± 0.4 kg/m3
- mass density (363.11 K, 21000 kPa, x2 = 0.2526): 729.2 ± 0.4 kg/m3
- mass density (363.11 K, 21000 kPa, x2 = 0.5259): 738.6 ± 0.4 kg/m3
- mass density (363.11 K, 22000 kPa, x2 = 0.0955): 727.5 ± 0.4 kg/m3
- mass density (363.11 K, 22000 kPa, x2 = 0.2526): 730.1 ± 0.4 kg/m3
- mass density (363.11 K, 22000 kPa, x2 = 0.5259): 739.9 ± 0.4 kg/m3
- mass density (363.11 K, 23000 kPa, x2 = 0.0955): 728.3 ± 0.4 kg/m3
- mass density (363.11 K, 23000 kPa, x2 = 0.2526): 731 ± 0.4 kg/m3
- mass density (363.11 K, 23000 kPa, x2 = 0.5259): 741.1 ± 0.4 kg/m3
- mass density (363.11 K, 24000 kPa, x2 = 0.0955): 729.1 ± 0.5 kg/m3
- mass density (363.11 K, 24000 kPa, x2 = 0.2526): 731.8 ± 0.4 kg/m3
- mass density (363.11 K, 24000 kPa, x2 = 0.5259): 742.3 ± 0.4 kg/m3
- mass density (363.11 K, 25000 kPa, x2 = 0.0955): 729.9 ± 0.5 kg/m3
- mass density (363.11 K, 25000 kPa, x2 = 0.2526): 732.7 ± 0.4 kg/m3
- mass density (363.11 K, 25000 kPa, x2 = 0.5259): 743.4 ± 0.4 kg/m3
- mass density (363.34 K, 16000 kPa, x2 = 0.7549): 720.1 ± 0.4 kg/m3
- mass density (363.34 K, 17000 kPa, x2 = 0.7549): 724.7 ± 0.4 kg/m3
- mass density (363.34 K, 18000 kPa, x2 = 0.7549): 728.3 ± 0.4 kg/m3
- mass density (363.34 K, 19000 kPa, x2 = 0.7549): 730.8 ± 0.4 kg/m3
- mass density (363.34 K, 20000 kPa, x2 = 0.7549): 734.2 ± 0.4 kg/m3
- mass density (363.34 K, 21000 kPa, x2 = 0.7549): 737.3 ± 0.4 kg/m3
- mass density (363.34 K, 22000 kPa, x2 = 0.7549): 740.5 ± 0.4 kg/m3
- mass density (363.34 K, 23000 kPa, x2 = 0.7549): 743.8 ± 0.4 kg/m3
- mass density (363.34 K, 24000 kPa, x2 = 0.7549): 746.9 ± 0.4 kg/m3
- mass density (363.34 K, 25000 kPa, x2 = 0.7549): 750.1 ± 0.5 kg/m3
